Laboratory results as given in ChEMBL document CHEMBL1201862, “PubChem BioAssay data set” (2004).
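Where inhibition never reached the appropriate level, the endpoint shown equals the highest concentration tested. Otherwise, values were interpolated linearly from a five-concentration, 48-hour dose response in 96-well plates. Abbreviation: GI50, concentration required for 50% inhibition of growth.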 Calls of active or inactive are those of the source. Rule as the data show it: active = GI50 up to about 1.1 µM and inactive = higher.

Experiments:
Experiment in all cases: growth of human tumour cells (NCI), 48 h
OVCAR-8 = test system: OVCAR-8
NCI/ADR-RES = test system: NCI/ADR-RES
LOX IMVI = test system: LOX IMVI
MOLT-4 = test system: MOLT-4
SNB-75 = test system: SNB-75
UACC-257 = test system: UACC-257
SK-MEL-5 = test system: SK-MEL-5
RPMI-8226 = test system: RPMI-8226
IGROV-1 = test system: IGROV-1
MDA-N = test system: MDA-N
CCRF-CEM = test system: CCRF-CEM
SN12C = test system: SN12C
PC-3 = test system: PC-3
SK-OV-3 = test system: SK-OV-3
HL-60 = test system: HL-60
NCI-H23 = test system: NCI-H23
ACHN = test system: ACHN
HCT-15 = test system: HCT-15
U-251 = test system: U-251
T47D = test system: T47D

SMILES | GI50 (OVCAR-8) | GI50 (NCI/ADR-RES) | GI50 (LOX IMVI) | GI50 (MOLT-4) | GI50 (SNB-75) | GI50 (UACC-257) | GI50 (SK-MEL-5) | GI50 (RPMI-8226) | GI50 (IGROV-1) | GI50 (MDA-N) | GI50 (CCRF-CEM) | GI50 (SN12C) | GI50 (PC-3) | GI50 (SK-OV-3) | GI50 (HL-60) | GI50 (NCI-H23) | GI50 (ACHN) | GI50 (HCT-15) [µM] | GI50 (U-251) | GI50 (T47D)
CCOP(=O)(OCC)/C(C#N)=C/c1cnc(-c2ccccc2)[nH]1 | > 100 µM (inactive) | > 100 µM (inactive) | > 100 µM (inactive) | > 100 µM (inactive) | > 100 µM (inactive) | > 100 µM (inactive) | 82.8 µM (inactive) | > 100 µM (inactive) | > 100 µM (inactive) | > 100 µM (inactive) | > 100 µM (inactive) | > 100 µM (inactive) | > 100 µM (inactive) | > 100 µM (inactive) | > 100 µM (inactive) | 79.6 µM (inactive) | > 100 µM (inactive) | > 100 | > 100 µM (inactive) | 
CCN(CC)c1ccc2cc(C(=O)Nc3ccccn3)c(=N)oc2c1 | 36.3 µM (inactive) | 85.3 µM (inactive) | 71.1 µM (inactive) | > 100 µM (inactive) | 28.5 µM (inactive) | > 100 µM (inactive) | > 100 µM (inactive) | > 100 µM (inactive) | > 100 µM (inactive) | > 100 µM (inactive) | > 100 µM (inactive) | > 100 µM (inactive) |  | 52 µM (inactive) | > 100 µM (inactive) | 37.8 µM (inactive) | 26.9 µM (inactive) | > 100 | 37.9 µM (inactive) | 99.8 µM (inactive)
COC(=O)C1(C(=O)OC)CC2c3c(c4ccccc4n3C)CC(C1=O)N2Cc1ccccc1 (stereo not drawn) | > 100 µM (inactive) |  | > 100 µM (inactive) | > 100 µM (inactive) | 15.4 µM (inactive) | > 100 µM (inactive) | > 100 µM (inactive) | 61.1 µM (inactive) | > 100 µM (inactive) |  | > 100 µM (inactive) | > 100 µM (inactive) |  | > 100 µM (inactive) | 96.8 µM (inactive) | > 100 µM (inactive) | > 100 µM (inactive) | > 100 | > 100 µM (inactive) | 
CCCCCCCCC(C)CCCCCCCCC(=O)OCC(COP(=O)([O-])OCC[N+](C)(C)C)OC(=O)CCCCCCCCC(C)CCCCCCCC (stereo not drawn) | > 100 µM (inactive) |  | > 100 µM (inactive) | > 100 µM (inactive) | > 100 µM (inactive) | > 100 µM (inactive) | > 100 µM (inactive) | > 100 µM (inactive) | > 100 µM (inactive) |  | > 100 µM (inactive) | > 100 µM (inactive) |  | > 100 µM (inactive) | > 100 µM (inactive) | > 100 µM (inactive) | > 100 µM (inactive) | > 100 | > 100 µM (inactive) | 
NCCSC(c1ccccc1)c1ccccc1 | 20.6 µM (inactive) | 31.3 µM (inactive) | 16.3 µM (inactive) | 15.7 µM (inactive) | 24.5 µM (inactive) | 16.3 µM (inactive) | 16.7 µM (inactive) | 16 µM (inactive) | 13.1 µM (inactive) | 18.7 µM (inactive) | 32.6 µM (inactive) | 35.5 µM (inactive) | 21.8 µM (inactive) | 22.5 µM (inactive) | 0.314 µM (active) | 37.2 µM (inactive) | 31.8 µM (inactive) | 33.2 | 18.2 µM (inactive) | 
COc1ccc2oc(C(=O)N3CC(CCl)c4ccc([N+](=O)[O-])cc43)cc2c1 (stereo not drawn) | 17.2 µM (inactive) | 17.9 µM (inactive) | 67 µM (inactive) |  | 18.2 µM (inactive) | > 100 µM (inactive) | > 100 µM (inactive) | > 100 µM (inactive) | 0.103 µM (active) |  |  |  | 20.7 µM (inactive) | 13.2 µM (inactive) |  | 73.8 µM (inactive) | 40.6 µM (inactive) |  | 26 µM (inactive) | 53.8 µM (inactive)
CCOC(CN(C)C(=O)OCC(Cl)(Cl)Cl)OCC | > 100 µM (inactive) | 39.4 µM (inactive) | 57.9 µM (inactive) | 29.3 µM (inactive) | 83.4 µM (inactive) | 33.4 µM (inactive) | 33.7 µM (inactive) |  | > 100 µM (inactive) | 81.3 µM (inactive) | 56.6 µM (inactive) | > 100 µM (inactive) | 23.3 µM (inactive) | > 100 µM (inactive) | 21.6 µM (inactive) | 59.7 µM (inactive) | 99.1 µM (inactive) | 77.8 | 74.8 µM (inactive) | 
S=C(Nc1ccccc1)N(/N=C/C=C/c1ccccc1)c1nnc(-c2ccccc2)c(-c2ccccc2)n1 | > 100 µM (inactive) |  | 52.1 µM (inactive) | 32.3 µM (inactive) | > 100 µM (inactive) | 38.9 µM (inactive) | 30.8 µM (inactive) | 26.1 µM (inactive) | > 100 µM (inactive) |  | 51.2 µM (inactive) | > 100 µM (inactive) |  | > 100 µM (inactive) | 22.4 µM (inactive) | 19.6 µM (inactive) | 60.4 µM (inactive) | 82.2 | > 100 µM (inactive) | 
CN(Cc1cnc2c(n1)C(N)=NN(N)N2)c1ccc(C(=O)NC(CCP(=O)(O)O)C(=O)O)cc1 (stereo not drawn) | > 36.2 µM (inactive) | 8.02 µM (inactive) | 0.637 µM (active) | 5.42 µM (inactive) | 7.01 µM (inactive) | > 100 µM (inactive) | 5.35 µM (inactive) |  | 4.86 µM (inactive) |  | 0.267 µM (active) | > 63.2 µM (inactive) |  | > 100 µM (inactive) | 0.252 µM (active) | 14.9 µM (inactive) | 2.17 µM (inactive) | 6.14 | > 91 µM (inactive) | > 100 µM (inactive)
Cc1ccc(/C=C2/NC(=S)SC2=O)cc1 | 31 µM (inactive) | 22.5 µM (inactive) | 32.8 µM (inactive) | 33.8 µM (inactive) | 20.7 µM (inactive) | 31.4 µM (inactive) | 32.1 µM (inactive) |  | 37.7 µM (inactive) |  |  | 31 µM (inactive) | 38.4 µM (inactive) | 88.1 µM (inactive) | 27.4 µM (inactive) | 20.7 µM (inactive) | 33 µM (inactive) | 24.2 | 43.9 µM (inactive) | 31.3 µM (inactive)
O=C1NC(O)c2ccccc2O1 (stereo not drawn) | > 100 µM (inactive) | > 100 µM (inactive) | > 100 µM (inactive) | > 100 µM (inactive) | > 100 µM (inactive) | > 100 µM (inactive) | > 100 µM (inactive) |  | > 100 µM (inactive) | > 100 µM (inactive) | > 100 µM (inactive) | > 100 µM (inactive) | > 100 µM (inactive) | > 100 µM (inactive) | > 100 µM (inactive) | > 100 µM (inactive) | > 100 µM (inactive) | > 100 | > 100 µM (inactive) | 
O=[N+]([O-])c1cc(Cl)ccc1OCc1ccccc1 | > 100 µM (inactive) |  | 40.8 µM (inactive) | 27.9 µM (inactive) | 20.6 µM (inactive) | 45.3 µM (inactive) | 27.3 µM (inactive) | 67 µM (inactive) | > 100 µM (inactive) |  | 40.9 µM (inactive) | > 100 µM (inactive) |  | > 100 µM (inactive) | 28.4 µM (inactive) | 32.1 µM (inactive) | 51.4 µM (inactive) | 67 | 42.2 µM (inactive) | 
CC(C)(C)c1cc(-c2cc(C(C)(C)C)[nH]n2)[nH]n1 |  |  | 93.3 µM (inactive) | 96.2 µM (inactive) |  | > 100 µM (inactive) | > 100 µM (inactive) | > 100 µM (inactive) | > 100 µM (inactive) | > 100 µM (inactive) | 39.4 µM (inactive) | > 100 µM (inactive) | > 100 µM (inactive) | > 100 µM (inactive) | 46.8 µM (inactive) | > 100 µM (inactive) | > 100 µM (inactive) | > 100 | > 100 µM (inactive) | > 100 µM (inactive)
COc1cc2c(cc1C)NC(=O)/C2=C\c1cccnc1 | 15.5 µM (inactive) | 14.1 µM (inactive) | 18.7 µM (inactive) | 7.98 µM (inactive) | 17.9 µM (inactive) | 13.1 µM (inactive) | 15.1 µM (inactive) | 26.9 µM (inactive) |  |  | 20.8 µM (inactive) | 15.7 µM (inactive) | 30.1 µM (inactive) | 16.3 µM (inactive) | 5 µM (inactive) | 10.8 µM (inactive) | 26.9 µM (inactive) | 16.4 | 12.9 µM (inactive) | 3.91 µM (inactive)
C=C(C)C1CC/C(C)=C/CC[C@]2(C)O[C@H]2CC/C(COC(C)=O)=C\[C@@H]1O (stereo partly drawn) | > 50 µM (inactive) | 20.7 µM (inactive) |  | 16 µM (inactive) |  | > 50 µM (inactive) | > 50 µM (inactive) | > 50 µM (inactive) | > 50 µM (inactive) |  | 16.3 µM (inactive) | > 50 µM (inactive) | 22.4 µM (inactive) | 31.1 µM (inactive) | 27.4 µM (inactive) | > 50 µM (inactive) | > 50 µM (inactive) | > 50 | > 50 µM (inactive) | > 50 µM (inactive)
CCN(CC)CCCC(C)NC(=O)c1ccc2c(c1)C(=O)c1ccccc1C2=O (stereo not drawn) | 22.3 µM (inactive) |  | 15.9 µM (inactive) | 16.6 µM (inactive) | 48.2 µM (inactive) | 11.9 µM (inactive) | 14.5 µM (inactive) | 18.7 µM (inactive) | 24.9 µM (inactive) |  | 21.7 µM (inactive) | 18.1 µM (inactive) |  | 40.1 µM (inactive) | 13.5 µM (inactive) | 15.4 µM (inactive) | 18.1 µM (inactive) | 17.9 | 20.1 µM (inactive) | 
